Read-outs that look alike come from different tables or passages of the source.
Tests used:
Format in all cases: in vivo
wheat = assay: Post-emergence herbicidal activity against cereal crops (wheat) +/- safener, crop selectivity; settings: 100%=total damage to plant, 0%=no damage; for Post-emergence herbicidal activity against wheat (percentage phytotoxicity), +CQC: 250 g/ha, plus safener cloquintocet-mexyl (CQC) applied at 50 g/ha; for percent phytotoxicity (crop damage) to wheat at 250 g/ha: Triticum aestivum, 360 h, without safener, read-out: Post-emergence herbicidal activity against wheat (percentage phytotoxicity), Wheat - CQC
Method in brief: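 Test plants raised in pots in a glasshouse (24/18 °C warm or 20/16 °C cool species day/night, 16 h light, 65% humidity) and treated post-emergence about 12 days after sowing. Visual percentage phytotoxicity scored 15 days after application (0% = no damage, 100% = total damage).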

Lolium perenne (LOLPE) = assay: Glasshouse assay for herbicidal activity, pre-/post-emergence (percentage phytotoxicity); settings: Lolium perenne, Rate 250 g/ha, 100%=total damage, 0%=no damage
Method in brief: (§1)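 Percentage phytotoxicity was assessed visually, 100% meaning total plant damage and 0% none, at 20 days after application for pre-emergence and 15 days for post-emergence. Plants were potted in standard soil and treated after 1 day or about 12 days of growth.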

[1] = test system: Alopecurus myosuroides (ALOMY); assay: as above; settings: Alopecurus myosuroides, Rate 250 g/ha, 100%=total damage, 0%=no damage
Method in brief: as §1

Avena fatua (AVEFA) = assay: as above; settings: Avena fatua, Rate 250 g/ha, 100%=total damage, 0%=no damage
Method in brief: as §1

[2] = test system: Echinochloa crus-galli (ECHCG); assay: as above; settings: Echinochloa crus-galli, Rate 250 g/ha, 100%=total damage, 0%=no damage
Method in brief: as §1

[3] = post-emergence, 360 h, post-emergence, visual assessment 15 DAA, read-out: Post-emergence herbicidal activity (percentage phytotoxicity), LOLPE POST
[4] = pre-emergence, 480 h, pre-emergence, visual assessment 20 DAA, read-out: Pre-emergence herbicidal activity (percentage phytotoxicity), LOLPE PRE
[5] = 360 h, post-emergence, visual assessment 15 DAA, read-out: Post-emergence herbicidal activity (percentage phytotoxicity), ALOMY POST
[6] = 480 h, pre-emergence, visual assessment 20 DAA, read-out: Pre-emergence herbicidal activity (percentage phytotoxicity), ALOMY PRE
[7] = post-emergence, 360 h, post-emergence, visual assessment 15 DAA, read-out: Post-emergence herbicidal activity (percentage phytotoxicity), AVEFA POST
[8] = pre-emergence, 480 h, pre-emergence, visual assessment 20 DAA, read-out: Pre-emergence herbicidal activity (percentage phytotoxicity), AVEFA PRE
[9] = post-emergence, 360 h, post-emergence, visual assessment 15 DAA, read-out: Post-emergence herbicidal activity (percentage phytotoxicity), ECHCG POST
[10] = pre-emergence, 480 h, pre-emergence, visual assessment 20 DAA, read-out: Pre-emergence herbicidal activity (percentage phytotoxicity), ECHCG PRE

Compound | Post-emergence herbicidal activity against wheat (percentage phytotoxicity), +CQC (wheat) [%] | percent phytotoxicity (crop damage) to wheat at 250 g/ha (wheat) [%] | pest or weed control at 250 g/ha (Lolium perenne (LOLPE); [3]) [%] | pest or weed control at 250 g/ha (Lolium perenne (LOLPE); [4]) [%] | pest or weed control at 250 g/ha [1, 5] [%] | pest or weed control at 250 g/ha [1, 6] [%] | pest or weed control at 250 g/ha (Avena fatua (AVEFA); [7]) [%] | pest or weed control at 250 g/ha (Avena fatua (AVEFA); [8]) [%] | pest or weed control at 250 g/ha [2, 9] [%] | pest or weed control at 250 g/ha [2, 10] [%]
CC(=NOCc1ccccc1)C(=O)NCCC1CC(=O)C(c2c(C)cc(C)cc2C)C1=O (stereo not shown) [Compound A44] | 10 | 30 | 0 | 10 | 0 | 0 | 0 | 0 | 70 | 0
Cc1cc(C)c(C2C(=O)CC(CCNC(=O)Nc3ccccc3F)C2=O)c(C)c1 (stereo not shown) [Compound A45] | 0 | 0 | 80 | 90 | 20 | 0 | 0 | 0 | 40 | 80
Cc1cc(C)c(C2C(=O)CC(CCNC(=O)NC(=O)c3ccccc3)C2=O)c(C)c1 (stereo not shown) [Compound A46] | 70 | 80 | 100 | 70 | 70 | 30 | 90 | 30 | 100 | 60
Cc1cc(C)c(C2C(=O)CC(CCNC(=O)N3CCOCC3)C2=O)c(C)c1 (stereo not shown) [Compound A47] | 0 | 50 | 30 | 50 | 60 | 60 | 70 | 0 | 60 | 80
Cc1cc(C)c(C2C(=O)CC(CCNC(=O)NC(=O)c3c(F)cccc3F)C2=O)c(C)c1 (stereo not shown) [Compound A48] | 50 | 60 | 100 | 100 | 90 | 100 | 100 | 90 | 100 | 90
Cc1cc(C)c(C2C(=O)CC(CCNC(=O)NC(=O)c3ccccc3Cl)C2=O)c(C)c1 (stereo not shown) [Compound A49] | 90 | 90 | 100 | 90 | 100 | 90 | 100 | 80 | 100 | 100
Cc1cc(C)c(C2C(=O)CC(CCNC(=O)NC(=O)c3ccccc3C)C2=O)c(C)c1 (stereo not shown) [Compound A50] | 90 | 90 | 100 | 90 | 100 | 100 | 90 | 80 | 80 | 90
Cc1cc(C)c(C2C(=O)CC(CCNC(=O)NC(=O)c3ccc(Cl)cc3)C2=O)c(C)c1 (stereo not shown) [Compound A51] | 80 | 80 | 90 | 60 | 90 | 70 | 80 | 30 | 90 | 90
Cc1cc(C)c(C2C(=O)CC(CCNC(=O)NC(=O)c3c(Cl)cccc3Cl)C2=O)c(C)c1 (stereo not shown) [Compound A52] | 30 | 80 | 90 | 80 | 90 | 80 | 80 | 70 | 90 | 100
Cc1cc(C)c(C2C(=O)CC(CCNC(=O)NC(=O)c3ccc(F)cc3F)C2=O)c(C)c1 (stereo not shown) [Compound A53] | 80 | 90 | 100 | 90 | 90 | 80 | 100 | 70 | 100 | 100
Cc1cc(C)c(C2C(=O)CC(CCNC(=O)NC(=O)c3ccccc3F)C2=O)c(C)c1 (stereo not shown) [Compound A54] | 80 | 90 | 100 | 80 | 100 | 60 | 100 | 60 | 100 | 80
Cc1ccc(C(=O)NC(=O)NCCC2CC(=O)C(c3c(C)cc(C)cc3C)C2=O)cc1 (stereo not shown) [Compound A55] | 0 | 30 | 90 | 70 | 70 | 60 | 0 | 10 | 80 | 80
Cc1cc(C)c(C2C(=O)CC(CCNC(=O)NC(=O)c3ccc(F)c(F)c3)C2=O)c(C)c1 (stereo not shown) [Compound A56] | 70 | 80 | 90 | 80 | 80 | 70 | 80 | 40 | 80 | 60
COc1ccc(C(=O)NC(=O)NCCC2CC(=O)C(c3c(C)cc(C)cc3C)C2=O)cc1 (stereo not shown) [Compound A57] | 20 | 80 | 100 | 70 | 90 | 80 | 50 | 0 | 80 | 100
Cc1cc(C)c(C2C(=O)CC(CCNC(=O)NC(=O)c3ccc(Cl)c(F)c3)C2=O)c(C)c1 (stereo not shown) [Compound A58] | 20 | 80 | 90 | 0 | 40 | 0 | 10 | 0 | 80 | 0
Cc1cc(C)c(C2C(=O)CC(CCNC(=O)NC(=O)c3ccc(Cl)cc3F)C2=O)c(C)c1 (stereo not shown) [Compound A59] | 80 | 90 | 100 | 80 | 90 | 70 | 90 | 30 | 90 | 100

Reference: patent US10301295B2, “Herbicidal compounds” (Syngenta Participations AG, priority 2014, dated 2019)
